This note sets out measurements from patent publication US8097266B2, “Solvent systems for pour-on formulations for combating parasites” (Merial Limited, priority 2007, dated 2012).

The format of data set [1] is physicochemical. How it is done: In addition to examination of solutions for clarity, aged samples (2 months@ 25° C.) were examined chromatographically for degradation.
In order to elucidate possible degradation components, solutions of active components were subjected to forced degradation conditions of acid, base, and peroxide at elevated temperature.
Samples containing ivermectin and clorsulon were prepared in acetonitrile and subjected to acid (a few drops of phosphoric acid), alkaline (a few drops of 1N sodium hydroxide) and peroxide (a small amount of t-butyl peroxide or hydrogen peroxide) degradation conditions. Samples were first analyzed for signs of degradation after a few days at ambient temperature. If, after this time there were no signs of degradation the samples were further ‘stressed’ by storage at 40° C.

Data set [2] in a line: Preliminary stability of Table 3 formulations at 50° C. Format: physicochemical. As to conditions: addition of glycerol formal. How it is done:
Larger batches (100 mL) of formulations were made for use in preliminary stability studies.
Eprinomectin was also included in the formulation studies at the same end product concentration as ivermectin (0.5% w/v). The formulations shown in Table 3 were monitored for stability.
In order to evaluate the stability of formulations, analytical methods (described below) were developed to assay each active ingredient and monitor any degradation.
This HPLC assay was developed as an external standardization method which involves volumetric dilution of an accurately weighed amount of standard material and sample. The chromatographic method comprises an isocratic elution and detection of analyte components using the run parameters below: […]

Consider `Nc1cc(C(Cl)=C(Cl)Cl)c(S(N)(=O)=O)cc1S(N)(=O)=O` [clorsulon, 4-amino-6-trichloroethenyl-1,3-benzene disulfonamide], for which the “Relative stability of the two active compounds” value in data set [1] is “more stable”.

Consider eprinomectin, for which the “Stabilization of eprinomectin in formulation” value in data set [2] is listed as “stabilized by the addition of glycerol formal”.
